Source: ChEMBL document CHEMBL2311250 (Bioorg Med Chem Lett, 2013)
Converted amounts (≈) assume the structure as drawn.

Columns and labels:
[1] = Cmax in Sprague-Dawley rat at 1 mg/kg, iv and 5 mg/kg, po; assay type: ADME, organism-based; settings: in vivo
[2] = target: RAC-alpha serine/threonine-protein kinase (Homo sapiens, UniProt P31749); assay: Inhibition of AKT1 (unknown origin) in presence of ATP
[3] = Permeability of the compound by PAMPA; assay type: ADME; settings: read-out: permeability
Insulin receptor = Insulin receptor (Homo sapiens, UniProt P06213); assay: Inhibition of INSR (unknown origin) in presence of ATP
[4] = Volume of distribution at steady state in Sprague-Dawley rat at 1 mg/kg, iv and 5 mg/kg, po; assay type: ADME, organism-based; settings: in vivo, read-out: Vdss
[5] = Aqueous solubility of the compound at ph 6.5; assay type: physicochemical
[6] = target: Casein kinase I isoform delta (Homo sapiens, UniProt P48730); assay: Inhibition of CK1-delta (unknown origin) in presence of ATP
Casein kinase I isoform delta, sequence (P48730 whole entry, canonical isoform): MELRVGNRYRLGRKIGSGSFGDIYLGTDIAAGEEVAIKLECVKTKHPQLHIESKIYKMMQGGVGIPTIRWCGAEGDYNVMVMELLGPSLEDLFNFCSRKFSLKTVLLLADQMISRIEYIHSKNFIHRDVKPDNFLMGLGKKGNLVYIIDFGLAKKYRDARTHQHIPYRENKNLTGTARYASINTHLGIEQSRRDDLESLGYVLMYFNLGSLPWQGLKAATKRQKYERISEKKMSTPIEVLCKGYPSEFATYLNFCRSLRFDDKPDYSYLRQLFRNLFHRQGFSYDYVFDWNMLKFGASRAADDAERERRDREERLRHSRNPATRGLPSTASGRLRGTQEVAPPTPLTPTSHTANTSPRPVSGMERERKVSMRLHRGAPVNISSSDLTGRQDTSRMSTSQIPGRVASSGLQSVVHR

[7] = Half life in human liver microsomes; assay type: ADME, Microsome
Platelet = assay: Inhibition of platelet aggregation (unknown origin); assay type: functional, cell-based
[8] = Half life in rat liver microsomes; assay type: ADME, Microsome
hERG (KCNH2) = hERG (KCNH2) (Homo sapiens, UniProt Q12809); assay: Displacement of [3H]dofetilide from human ERG at 10 uM; settings: probe [3H]dofetilide
hERG (KCNH2), sequence (Q12809 whole entry): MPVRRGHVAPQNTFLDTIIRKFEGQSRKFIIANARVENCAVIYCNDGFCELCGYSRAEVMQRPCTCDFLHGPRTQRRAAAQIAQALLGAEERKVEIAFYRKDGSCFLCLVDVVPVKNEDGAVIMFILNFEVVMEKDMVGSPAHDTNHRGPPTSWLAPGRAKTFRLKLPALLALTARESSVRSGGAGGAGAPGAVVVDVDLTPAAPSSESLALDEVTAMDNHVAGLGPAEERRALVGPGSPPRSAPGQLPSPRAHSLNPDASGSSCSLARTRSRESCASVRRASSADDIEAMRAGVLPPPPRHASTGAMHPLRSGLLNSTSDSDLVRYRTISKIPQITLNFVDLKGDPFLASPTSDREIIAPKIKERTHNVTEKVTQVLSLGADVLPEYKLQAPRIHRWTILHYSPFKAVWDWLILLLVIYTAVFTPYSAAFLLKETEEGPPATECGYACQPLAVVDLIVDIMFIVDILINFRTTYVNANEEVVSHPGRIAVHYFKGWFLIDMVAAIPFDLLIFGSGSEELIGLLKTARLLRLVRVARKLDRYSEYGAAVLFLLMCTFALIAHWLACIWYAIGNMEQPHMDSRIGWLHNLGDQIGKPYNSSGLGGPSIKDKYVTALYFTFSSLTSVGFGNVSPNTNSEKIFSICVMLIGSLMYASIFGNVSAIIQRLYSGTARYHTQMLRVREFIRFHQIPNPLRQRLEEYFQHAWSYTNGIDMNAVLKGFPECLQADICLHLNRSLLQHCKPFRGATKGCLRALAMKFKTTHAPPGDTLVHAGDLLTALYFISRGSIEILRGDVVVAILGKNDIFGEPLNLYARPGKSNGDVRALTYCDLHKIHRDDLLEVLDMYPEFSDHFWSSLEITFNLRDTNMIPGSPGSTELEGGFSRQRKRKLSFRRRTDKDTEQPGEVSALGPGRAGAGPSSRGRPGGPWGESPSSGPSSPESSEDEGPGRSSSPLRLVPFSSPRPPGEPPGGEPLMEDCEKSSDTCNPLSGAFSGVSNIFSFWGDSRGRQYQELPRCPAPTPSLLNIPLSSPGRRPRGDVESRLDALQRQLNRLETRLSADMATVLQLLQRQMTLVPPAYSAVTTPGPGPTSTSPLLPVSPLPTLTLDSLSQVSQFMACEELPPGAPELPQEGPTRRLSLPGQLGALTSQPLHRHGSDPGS

[9] = target: Tyrosine-protein kinase ABL1 (Homo sapiens, UniProt P00519); assay: Inhibition of ABL (unknown origin) in presence of ATP
Tyrosine-protein kinase ABL1, sequence (P00519 whole entry): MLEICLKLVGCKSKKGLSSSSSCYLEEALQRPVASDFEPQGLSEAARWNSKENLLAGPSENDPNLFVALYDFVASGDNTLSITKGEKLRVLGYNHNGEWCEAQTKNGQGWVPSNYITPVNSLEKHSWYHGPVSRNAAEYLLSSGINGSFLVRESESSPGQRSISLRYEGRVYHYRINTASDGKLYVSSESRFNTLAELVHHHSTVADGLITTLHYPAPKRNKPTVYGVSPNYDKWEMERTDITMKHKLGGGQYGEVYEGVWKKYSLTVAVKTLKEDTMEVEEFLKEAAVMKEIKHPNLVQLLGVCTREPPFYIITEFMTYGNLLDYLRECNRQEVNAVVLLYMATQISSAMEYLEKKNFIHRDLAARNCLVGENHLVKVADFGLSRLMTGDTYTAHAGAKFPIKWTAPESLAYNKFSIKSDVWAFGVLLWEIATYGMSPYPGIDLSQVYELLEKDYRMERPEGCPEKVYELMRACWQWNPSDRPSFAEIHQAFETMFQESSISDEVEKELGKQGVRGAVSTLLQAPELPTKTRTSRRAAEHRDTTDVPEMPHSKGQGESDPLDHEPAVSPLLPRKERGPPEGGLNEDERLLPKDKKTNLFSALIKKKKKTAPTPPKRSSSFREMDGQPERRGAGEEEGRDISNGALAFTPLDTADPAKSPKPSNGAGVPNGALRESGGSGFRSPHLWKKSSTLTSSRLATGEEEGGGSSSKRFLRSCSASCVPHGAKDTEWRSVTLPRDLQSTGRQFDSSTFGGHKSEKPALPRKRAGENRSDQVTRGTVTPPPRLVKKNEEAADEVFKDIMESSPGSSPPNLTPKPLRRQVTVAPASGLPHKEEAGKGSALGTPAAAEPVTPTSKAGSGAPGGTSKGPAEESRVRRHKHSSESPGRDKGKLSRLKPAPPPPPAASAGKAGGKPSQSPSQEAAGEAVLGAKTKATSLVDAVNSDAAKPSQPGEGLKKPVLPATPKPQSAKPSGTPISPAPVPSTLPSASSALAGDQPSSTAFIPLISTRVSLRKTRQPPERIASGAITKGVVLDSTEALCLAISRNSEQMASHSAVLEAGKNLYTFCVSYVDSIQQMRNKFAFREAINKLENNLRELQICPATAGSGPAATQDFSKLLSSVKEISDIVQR

[10] = target: Fibroblast growth factor receptor 1 (Homo sapiens, UniProt P11362); assay: Inhibition of FGFR1 (unknown origin) in presence of ATP
Fibroblast growth factor receptor 1, sequence (P11362 whole entry): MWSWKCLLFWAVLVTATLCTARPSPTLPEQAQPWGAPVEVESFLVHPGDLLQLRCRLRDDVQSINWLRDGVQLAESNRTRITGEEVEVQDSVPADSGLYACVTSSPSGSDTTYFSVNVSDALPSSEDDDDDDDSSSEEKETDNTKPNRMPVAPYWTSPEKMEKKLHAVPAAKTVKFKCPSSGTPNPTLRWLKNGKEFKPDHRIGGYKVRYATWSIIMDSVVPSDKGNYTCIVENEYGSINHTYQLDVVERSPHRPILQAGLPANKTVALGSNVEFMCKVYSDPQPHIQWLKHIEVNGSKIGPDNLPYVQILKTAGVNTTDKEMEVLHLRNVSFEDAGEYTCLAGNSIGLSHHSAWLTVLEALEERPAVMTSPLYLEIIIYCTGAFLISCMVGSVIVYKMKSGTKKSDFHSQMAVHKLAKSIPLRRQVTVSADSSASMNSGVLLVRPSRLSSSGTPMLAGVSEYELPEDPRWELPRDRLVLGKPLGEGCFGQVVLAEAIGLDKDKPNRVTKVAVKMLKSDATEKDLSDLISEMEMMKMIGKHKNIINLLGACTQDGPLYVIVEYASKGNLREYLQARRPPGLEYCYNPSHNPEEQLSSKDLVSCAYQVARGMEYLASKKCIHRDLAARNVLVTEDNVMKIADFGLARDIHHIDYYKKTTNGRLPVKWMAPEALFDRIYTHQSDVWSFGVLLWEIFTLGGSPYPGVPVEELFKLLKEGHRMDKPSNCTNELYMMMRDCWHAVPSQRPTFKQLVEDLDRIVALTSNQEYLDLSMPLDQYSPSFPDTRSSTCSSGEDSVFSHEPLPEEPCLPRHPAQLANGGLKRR

[11] = target: T1, Tyrosine-protein kinase receptor TYRO3 (Homo sapiens, UniProt Q06418); assay: Inhibition of Sky (unknown origin) by ELISA kinase assay in presence of 60 uM ATP
T1 sequence (Q06418 whole entry): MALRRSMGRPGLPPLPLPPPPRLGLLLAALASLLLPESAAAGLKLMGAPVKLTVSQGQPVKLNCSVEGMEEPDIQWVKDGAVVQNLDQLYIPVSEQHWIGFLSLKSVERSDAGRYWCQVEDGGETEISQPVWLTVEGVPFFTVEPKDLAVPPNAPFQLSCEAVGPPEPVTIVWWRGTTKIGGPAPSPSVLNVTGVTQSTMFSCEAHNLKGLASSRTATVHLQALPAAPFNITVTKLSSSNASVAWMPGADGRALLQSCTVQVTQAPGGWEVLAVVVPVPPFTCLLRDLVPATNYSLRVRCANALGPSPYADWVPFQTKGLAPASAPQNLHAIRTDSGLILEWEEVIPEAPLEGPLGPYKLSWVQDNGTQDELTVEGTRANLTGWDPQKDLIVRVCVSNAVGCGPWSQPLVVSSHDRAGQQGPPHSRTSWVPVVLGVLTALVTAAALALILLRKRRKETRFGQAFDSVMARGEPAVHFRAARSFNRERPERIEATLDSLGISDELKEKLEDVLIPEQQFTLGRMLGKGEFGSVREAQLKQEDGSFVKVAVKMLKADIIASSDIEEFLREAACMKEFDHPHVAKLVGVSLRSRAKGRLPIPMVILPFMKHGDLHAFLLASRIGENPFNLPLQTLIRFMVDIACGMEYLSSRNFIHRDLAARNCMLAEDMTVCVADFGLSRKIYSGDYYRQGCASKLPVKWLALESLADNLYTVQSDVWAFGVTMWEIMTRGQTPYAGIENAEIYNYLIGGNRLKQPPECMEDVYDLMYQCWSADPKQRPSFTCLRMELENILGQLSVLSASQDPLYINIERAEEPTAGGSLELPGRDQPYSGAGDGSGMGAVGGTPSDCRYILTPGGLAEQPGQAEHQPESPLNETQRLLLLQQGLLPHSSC

[12] = Oral bioavailability in Sprague-Dawley rat at 5 mg/kg; assay type: ADME, organism-based; settings: in vivo
[13] = Half life in Sprague-Dawley rat at 1 mg/kg, iv and 5 mg/kg, po; assay type: ADME, organism-based; settings: in vivo
[14] = target: Tyrosine-protein kinase Lck (Homo sapiens, UniProt P06239); assay: Inhibition of LCK (unknown origin) in presence of ATP
Tyrosine-protein kinase Lck, sequence (P06239 whole entry): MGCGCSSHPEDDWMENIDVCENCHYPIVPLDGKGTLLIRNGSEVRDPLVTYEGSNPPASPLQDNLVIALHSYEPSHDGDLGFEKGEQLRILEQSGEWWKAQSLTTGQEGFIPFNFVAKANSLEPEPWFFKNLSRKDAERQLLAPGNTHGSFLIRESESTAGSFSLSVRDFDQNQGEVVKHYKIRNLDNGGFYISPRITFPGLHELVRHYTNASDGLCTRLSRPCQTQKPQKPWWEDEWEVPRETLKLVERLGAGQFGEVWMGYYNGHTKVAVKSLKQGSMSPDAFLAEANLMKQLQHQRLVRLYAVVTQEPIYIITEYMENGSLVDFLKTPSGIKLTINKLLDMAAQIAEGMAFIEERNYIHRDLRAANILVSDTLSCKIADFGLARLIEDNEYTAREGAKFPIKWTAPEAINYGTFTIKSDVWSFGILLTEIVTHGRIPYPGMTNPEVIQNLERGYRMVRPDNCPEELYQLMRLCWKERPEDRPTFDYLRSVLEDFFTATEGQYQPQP

[15] = Clearance in Sprague-Dawley rat at 1 mg/kg, iv and 5 mg/kg, po; assay type: ADME, organism-based; settings: in vivo
[16] = AUC in Sprague-Dawley rat at 1 mg/kg, iv and 5 mg/kg, po; assay type: ADME, organism-based; settings: plasma
CYP2D6 = CYP2D6 (Homo sapiens, UniProt P10635); assay: Inhibition of CYP2D6 (unknown origin) at 3 uM; assay type: ADME
[17] = target: Inhibitor of nuclear factor kappa-B kinase subunit beta (Homo sapiens, UniProt O14920); assay: Inhibition of IKK-beta (unknown origin) in presence of ATP
Aurora kinase A = Aurora kinase A (Homo sapiens, UniProt O14965); assay: Inhibition of Aurora-A (unknown origin) in presence of ATP
[18] = target: Serine/threonine-protein kinase MARK1 (Homo sapiens, UniProt Q9P0L2); assay: Inhibition of MARK1 (unknown origin) in presence of ATP
[19] = target: Cyclin-dependent kinase 2/cyclin A (Homo sapiens, UniProt P24941); assay: Inhibition of CDK2/cyclin A (unknown origin) in presence of ATP; assay type: protein-complex assay
[20] = target: Serine/threonine-protein kinase 26 (Homo sapiens, UniProt Q9P289); assay: Inhibition of MASK (unknown origin) in presence of ATP
Serine/threonine-protein kinase 26, sequence (Q9P289 whole entry): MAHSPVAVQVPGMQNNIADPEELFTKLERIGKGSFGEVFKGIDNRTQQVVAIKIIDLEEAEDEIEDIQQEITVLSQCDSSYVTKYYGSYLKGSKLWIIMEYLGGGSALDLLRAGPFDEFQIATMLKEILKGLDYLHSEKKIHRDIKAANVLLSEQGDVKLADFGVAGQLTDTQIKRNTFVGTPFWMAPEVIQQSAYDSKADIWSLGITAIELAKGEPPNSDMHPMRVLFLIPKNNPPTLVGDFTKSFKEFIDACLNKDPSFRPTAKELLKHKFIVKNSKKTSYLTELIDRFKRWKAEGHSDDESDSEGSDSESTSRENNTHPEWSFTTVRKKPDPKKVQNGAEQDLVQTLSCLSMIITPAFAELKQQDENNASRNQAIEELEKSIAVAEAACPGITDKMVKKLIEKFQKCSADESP

[21] = target: Tyrosine-protein kinase JAK3 (Homo sapiens, UniProt P52333); assay: Inhibition of JAK3 (unknown origin) in presence of ATP
[22] = target: Serine/threonine-protein kinase Chk1 (Homo sapiens, UniProt O14757); assay: Inhibition of CHK1 (unknown origin) in presence of ATP
Ephrin type-A receptor 2 = Ephrin type-A receptor 2 (Homo sapiens, UniProt P29317); assay: Inhibition of ECK (unknown origin) in presence of ATP
[23] = target: Mitogen-activated protein kinase kinase kinase 9 (Homo sapiens, UniProt P80192); assay: Inhibition of MAP3K9 (unknown origin) in presence of ATP
[24] = target: Dual specificity protein kinase CLK1 (Homo sapiens, UniProt P49759); assay: Inhibition of CLK1 (unknown origin) in presence of ATP
[25] = target: Glycogen synthase kinase-3 beta (Homo sapiens, UniProt P49841); assay: Inhibition of GSK3-beta (unknown origin) in presence of ATP
[26] = target: Serine/threonine-protein kinase Nek2 (Homo sapiens, UniProt P51955); assay: Inhibition of NEK2 (unknown origin) in presence of ATP
[27] = target: Inhibitor of nuclear factor kappa-B kinase subunit epsilon (Homo sapiens, UniProt Q14164); assay: Inhibition of IKKi (unknown origin) in presence of ATP
[28] = target: Calcium/calmodulin-dependent protein kinase type 1 (Homo sapiens, UniProt Q14012); assay: Inhibition of CAMK1 (unknown origin) in presence of ATP
[29] = target: Serine/threonine-protein kinase 3 (Homo sapiens, UniProt Q13188); assay: Inhibition of MST2 (unknown origin) in presence of ATP
[30] = target: Tyrosine-protein kinase BTK (Homo sapiens, UniProt Q06187); assay: Inhibition of BTK (unknown origin) in presence of ATP
CDK6/cyclin D3 = CDK6/cyclin D3 (Homo sapiens, UniProt Q00534); assay: Inhibition of CDK6/cyclin D3 (unknown origin) in presence of ATP; assay type: protein-complex assay
Casein kinase II = Casein kinase II (Homo sapiens, UniProt P19784+P67870+P68400); assay: Inhibition of CK2 (unknown origin) in presence of ATP; assay type: protein-complex assay
[31] = target: Serine/threonine-protein kinase Chk2 (Homo sapiens, UniProt O96017); assay: Inhibition of CHK2 (unknown origin) in presence of ATP
[32] = target: Myosin light chain kinase 2, skeletal/cardiac muscle (Homo sapiens, UniProt Q9H1R3); assay: Inhibition of MYLK2 (unknown origin) in presence of ATP
[33] = target: Mitogen-activated protein kinase 1 (Homo sapiens, UniProt P28482); assay: Inhibition of MAPK1/ERK2 (unknown origin) in presence of ATP
[34] = target: MAP kinase-activated protein kinase 2 (Homo sapiens, UniProt P49137); assay: Inhibition of MAPKAP-K2 (unknown origin) in presence of ATP

RAC-alpha serine/threonine-protein kinase, sequence (P31749 whole entry): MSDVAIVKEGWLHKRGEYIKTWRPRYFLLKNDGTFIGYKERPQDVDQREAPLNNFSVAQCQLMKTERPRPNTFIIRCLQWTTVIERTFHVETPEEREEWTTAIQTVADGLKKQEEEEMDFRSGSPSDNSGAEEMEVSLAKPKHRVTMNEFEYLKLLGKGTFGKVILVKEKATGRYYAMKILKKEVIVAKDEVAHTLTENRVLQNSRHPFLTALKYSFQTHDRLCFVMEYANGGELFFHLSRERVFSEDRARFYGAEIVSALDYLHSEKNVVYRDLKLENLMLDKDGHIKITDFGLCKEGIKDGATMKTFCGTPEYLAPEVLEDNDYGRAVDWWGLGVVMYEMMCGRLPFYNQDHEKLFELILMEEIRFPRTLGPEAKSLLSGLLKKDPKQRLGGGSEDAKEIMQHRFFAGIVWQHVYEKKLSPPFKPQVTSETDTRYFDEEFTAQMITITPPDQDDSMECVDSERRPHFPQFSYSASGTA

`CN1CCC(NC(=O)c2cnc(NCc3cc(Cl)ccc3Cl)nc2NC2CCCC2)CC1` showed a Cmax [1] of 35 ng/mL, an IC50 [2] of 18.6 µM and a Papp [3] of 0.02 ×10⁻⁶ cm/s. For the same compound, the IC50 (Insulin receptor) was 18.6 µM, the Vd [4] was 25 L/kg and the solubility [5] was 7.8 µM (≈ 3.72 µg/mL). The IC50 [6] was 2.39 µM, the half-life [7] was 14 min and the IC50 (Platelet) was 7.2 µM. It also gave a half-life [8] of 60 min, an inhibition at 10 µM (hERG (KCNH2)) of 47% and an IC50 [9] of 3.17 µM. The IC50 [10] was 12.5 µM, the IC50 [11] was 0.27 µM and the bioavailability [12] was 32%. The half-life [13] was 480 min, the IC50 [14] was 1.36 µM and the clearance [15] was 40 mL/min/kg. For the same compound, the AUC [16] was 680 ng·h/mL.
With `Cc1cc(-c2cnc(Nc3cc(Cl)cc(Cl)c3)nc2NC2CCC(N(C)C)CC2)on1` (configuration not stated) the inhibition at 3 µM (CYP2D6) was 69%, the IC50 [17] was 30 µM and the IC50 (Aurora kinase A) was 1.55 µM. The IC50 [18] was 1.49 µM, the IC50 [19] was 1.15 µM and the IC50 [20] was 3.84 µM. For the same compound, the IC50 [2] was 3.1 µM, the IC50 [21] was 5.3 µM and the IC50 [22] was 1.37 µM. For the same compound, the Papp [3] was 0.03 ×10⁻⁶ cm/s, the IC50 (Ephrin type-A receptor 2) was 2.43 µM and the IC50 [23] was 0.16 µM. For the same compound, the solubility [5] was 2.3 µM (≈ 1.06 µg/mL), the IC50 [6] was 0.11 µM and the IC50 [24] was 1.63 µM. For the same compound, the IC50 [25] was 7.74 µM, the half-life [7] was 28 min and the IC50 [26] was 2.51 µM. For the same compound, the IC50 [27] was 30 µM, the half-life [8] was 6 min and the IC50 [28] was 3.88 µM. For the same compound, the inhibition at 10 µM (hERG (KCNH2)) was 0.35%, the IC50 [29] was 0.47 µM and the IC50 [9] was 0.81 µM. The IC50 [30] was 0.95 µM, the IC50 [10] was 1.71 µM and the IC50 (CDK6/cyclin D3) was 30 µM. It also gave an IC50 (Casein kinase II) of 7.56 µM, an IC50 [31] of 7.97 µM and an IC50 [32] of 4.86 µM. It also gave an IC50 [14] of 0.22 µM, an IC50 [33] of 30 µM and an IC50 [34] of 18.6 µM.
